Experimental findings from US20120202690A1, “HERBICIDAL COMPOUNDS” (SYNGENTA LIMITED, priority 2009, published 2012) are described below.

Format in all cases: in vivo
For test [1], the system named is Alopecurus myosuroides (ALOMY). Kind of test: Post-emergence biological efficacy, glasshouse, 500 or 1000 g/ha, evaluated after 13 days (100=total damage to plant; 0=no damage to plant). The conditions noted are these: rate 1,000 g/ha; for pest or weed control at 1000 g/ha: Alopecurus myosuroides, 312 h, read-out: Percentage damage caused to weed species, post-emergence, ALOMY. The method in brief:
(§1)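 Damage is scored on pot-grown plants, sown in standard soil and sprayed after emergence, that were held post-treatment in a glasshouse (24/16° C. day/night, 14 hours light, 65% humidity).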

Test [2] relates to Echinochloa crusgaffi (ECHCG). The test is described as above. Particulars: rate 1,000 g/ha; for pest or weed control at 1000 g/ha: Echinochloa, 312 h, read-out: Percentage damage caused to weed species, post-emergence, ECHCG. The method in brief:
as §1

The test system of test [3] is Amaranthus retroflexus (AMARE). The test is described as above. The conditions noted are these: rate 1,000 g/ha; for pest or weed control at 1000 g/ha: Amaranthus retroflexus, 312 h, read-out: Percentage damage caused to weed species, post-emergence, AMARE. Put shortly:
as §1

Test [4] deals with Solanum nigrum (SOLNI). Described as above. Particulars: rate 1,000 g/ha; for pest or weed control at 1000 g/ha: Solanum nigrum, 312 h, read-out: Percentage damage caused to weed species, post-emergence, SOLNI. Put shortly:
as §1

The test system of test [5] is Setaria faberi (SETFA). Described as above. The conditions noted are these: rate 1,000 g/ha; for pest or weed control at 1000 g/ha: Setaria faberi, 312 h, read-out: Percentage damage caused to weed species, post-emergence, SETFA. Put shortly:
as §1

For test [6], the system named is Ipomoea hederaceae (IPOHE). Described as above. Particulars: rate 1,000 g/ha; for pest or weed control at 1000 g/ha: Ipomoea, 312 h, read-out: Percentage damage caused to weed species, post-emergence, IPOHE. Put shortly:
as §1

Test [7] has as its system Alopecurus myosuroides (ALOMY). Kind of test: Pre-emergence biological efficacy, glasshouse, 1000 g/ha, evaluated after 13 days (100=total damage to plant; 0=no damage to plant). Particulars: rate 1,000 g/ha; for pest or weed control at 1000 g/ha: Alopecurus myosuroides, 312 h, read-out: Percentage damage caused to weed species, pre-emergence, ALOMY. The method in brief: (§2)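 Standard soil in pots received the seeds. Growth took place in a glasshouse held at 24/16° C. day/night, 65% humidity and 14 h of light.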

Test [8] deals with Echinochloa crus-galli (ECHCG). The test is described as above. Particulars: rate 1,000 g/ha; for pest or weed control at 1000 g/ha: Echinochloa crus-galli, 312 h, read-out: Percentage damage caused to weed species, pre-emergence, ECHCG. The method in brief:
as §2

For test [9], the system named is Amaranthus retroflexus (AMARE). Described as above. The conditions noted are these: rate 1,000 g/ha; for pest or weed control at 1000 g/ha: Amaranthus retroflexus, 312 h, read-out: Percentage damage caused to weed species, pre-emergence, AMARE. Put shortly: as §2
Test [10] deals with Solanum nigrum (SOLNI). The test is described as above. The conditions noted are these: rate 1,000 g/ha; for pest or weed control at 1000 g/ha: Solanum nigrum, 312 h, read-out: Percentage damage caused to weed species, pre-emergence, SOLNI. The method in brief: as §2
The subject of test [11] is Setaria faberi (SETFA). Described as above. The conditions noted are these: rate 1,000 g/ha; for pest or weed control at 1000 g/ha: Setaria faberi, 312 h, read-out: Percentage damage caused to weed species, pre-emergence, SETFA. Put shortly: as §2
Test [12] concerns Ipomoea hederaceae (IPOHE). The test is described as above. Particulars: rate 1,000 g/ha; for pest or weed control at 1000 g/ha: Ipomoea, 312 h, read-out: Percentage damage caused to weed species, pre-emergence, IPOHE. The method in brief:
as §2

As to `COC(=O)c1nc(-c2ccc(Cl)c(OC)c2F)nc2c1c(C)cn2S(C)(=O)=O` [Compound 18-64, 2-(4-chloro-2-fluoro-3-methoxyphenyl)-4-methoxycarbonyl-5-methyl-7-methylsulphonyl-7H-pyrrolo[2,3-d]pyrimidine], the pest or weed control at 1000 g/ha in test [1] turned out to be 10%; in test [2] it was 10%; in test [3], 20%; in the test on Solanum nigrum (SOLNI) [4] it was 40%; in the test with Setaria faberi (SETFA) [5], 30%; in [6], 40%. The pest or weed control at 1000 g/ha (in test [7]; in [8]; in test [9]; in the test with Solanum nigrum (SOLNI) [10]; in the test with Setaria faberi (SETFA) [11]; in test [12]) was 0% each time.

Take `COc1c(Cl)ccc(-c2nc(C(=O)O)c3c(C)cn(S(=O)(=O)c4ccc(C)cc4)c3n2)c1F` [Compound 19-63, 4-Carboxy-2-(4-chloro-2-fluoro-3-methoxyphenyl)-5-methyl-7-(4-methylphenyl-sulphonyl)-7H-pyrrolo[2,3-d]pyrimidine]: the pest or weed control at 1000 g/ha in test [1] was 0%; in [2] it was 0%; in test [3] it was 50%; in the test on Solanum nigrum (SOLNI) [4], 70%; with Setaria faberi (SETFA) [5] it was 0%; in [6], 60%. In addition, the pest or weed control at 1000 g/ha (in test [7]; in [8]; in test [9]; with Solanum nigrum (SOLNI) [10]; with Setaria faberi (SETFA) [11]; in test [12]) was 0% each time.

For `COC(=O)c1nc(-c2ccc(Cl)c(OC)c2F)nc2scc(C)c12` [Compound 21-64, 2-(4-Chloro-2-fluoro-3-methoxyphenyl)-4-methoxycarbonyl-5-methyl-thieno[2,3-d]pyrimidine], the pest or weed control at 1000 g/ha in [1] came to 0%; in [2] it was 10%; in test [3] it was 80%; in the test with Solanum nigrum (SOLNI) [4], 70%; with Setaria faberi (SETFA) [5] it was 0%; in [6], 40%. The pest or weed control at 1000 g/ha (in [7]; in test [8]; in [9]; in the test on Solanum nigrum (SOLNI) [10]; in the test on Setaria faberi (SETFA) [11]; in [12]) was 0% throughout.

Turning to `COC(=O)c1nc(-c2ccc(Cl)c(F)c2)cc2[nH]cc(C)c12` [Compound 22-20, 6-(4-Chloro-3-fluorophenyl)-4-methoxycarbonyl-3-methyl-1H-pyrrolo[3,2-c]pyridine], the pest or weed control at 1000 g/ha came out at 50% in test [1]; 70% in test [2]; 100% in [3]; 80% with Solanum nigrum (SOLNI) [4]; 60% in the test with Setaria faberi (SETFA) [5]; 70% in test [6]. Also, the pest or weed control at 1000 g/ha worked out at 20% in test [7]; 20% in test [8]; 100% in test [9]; 60% in the test with Solanum nigrum (SOLNI) [10]; 0% in the test on Setaria faberi (SETFA) [11]; 80% in test [12].

As to `COC(=O)c1nc(-c2ccc(Cl)c(OC)c2F)cc2[nH]ccc12` [Compound 22-62, 6-(4-Chloro-2-fluoro-3-methoxyphenyl)-4-methoxycarbonyl-1H-pyrrolo[3,2-c]pyridine], the pest or weed control at 1000 g/ha came out at 0% in test [1]; 50% in test [2]; 80% in test [3]; 70% in the test on Solanum nigrum (SOLNI) [4]; 20% in the test with Setaria faberi (SETFA) [5]; 60% in [6]. The pest or weed control at 1000 g/ha in test [7] turned out to be 0%; in [8] it was 0%; in [9], 20%; with Solanum nigrum (SOLNI) [10], 20%; with Setaria faberi (SETFA) [11] it was 0%; in test [12], 50%.

As to `COc1c(Cl)ccc(-c2cc3[nH]cc(C)c3c(C(=O)O)n2)c1F` [Compound 22-63, 4-Carboxy-6-(4-chloro-2-fluoro-3-methoxyphenyl)-3-methyl-1H-pyrrolo[3,2-c]pyridine], the pest or weed control at 1000 g/ha in test [1] came to 40%; in [2], 70%; in test [3], 70%; in the test with Solanum nigrum (SOLNI) [4], 80%; in the test with Setaria faberi (SETFA) [5], 90%; in test [6], 70%. Further, the pest or weed control at 1000 g/ha was 0% in [7]; 0% in test [8]; 20% in test [9]; 60% in the test with Solanum nigrum (SOLNI) [10]; 0% in the test on Setaria faberi (SETFA) [11]; 70% in test [12].

Consider `COC(=O)c1nc(-c2ccc(Cl)c(OC)c2F)cc2[nH]cc(C)c12` [Compound 22-64, 6-(4-chloro-2-fluoro-3-methoxyphenyl)-4-methoxycarbonyl-3-methyl-1H-pyrrolo[3,2-c]pyridine], for which the pest or weed control at 1000 g/ha was determined as 50% in test [1]; 80% in test [2]; 100% in test [3]; 90% in the test on Solanum nigrum (SOLNI) [4]; 70% in the test on Setaria faberi (SETFA) [5]; 70% in test [6]. In addition, the pest or weed control at 1000 g/ha in test [7] turned out to be 10%; in test [8] it was 70%; in test [9], 90%; in the test on Solanum nigrum (SOLNI) [10] it was 80%; in the test with Setaria faberi (SETFA) [11], 20%; in test [12], 60%.

With `CCOC(=O)c1nc(-c2ccc(Cl)c(OC)c2F)cc2[nH]cc(C)c12` [Compound 22-75, 6-(4-chloro-2-fluoro-3-methoxyphenyl)-4-ethoxycarbonyl-3-methyl-1H-pyrrolo[3,2-c]pyridine], the pest or weed control at 1000 g/ha in [1] is 10%; in test [2] it was 20%; in [3], 80%; in the test on Solanum nigrum (SOLNI) [4], 90%; with Setaria faberi (SETFA) [5], 50%; in test [6] it was 60%. For the same molecule, the pest or weed control at 1000 g/ha in [7] worked out at 10%; in test [8] it was 10%; in test [9] it was 70%; in the test with Solanum nigrum (SOLNI) [10], 80%; in the test on Setaria faberi (SETFA) [11], 0%; in test [12], 90%.

With `CCCCCCCCOC(=O)c1nc(-c2ccc(Cl)c(OC)c2F)cc2[nH]cc(C)c12` [Compound 22-77], the “Percentage damage caused to weed species, post-emergence, ALOMY” value in test [1] amounted to 10%. Moreover, the “Percentage damage caused to weed species, post-emergence, ECHCG” value in test [2] was 0%. Besides, in test [3], the “Percentage damage caused to weed species, post-emergence, AMARE” value was found to be 70%. The “Percentage damage caused to weed species, post-emergence, SOLNI” value with Solanum nigrum (SOLNI) [4] came out at 90%. Further, the “Percentage damage caused to weed species, post-emergence, SETFA” value in the test on Setaria faberi (SETFA) [5] is listed as 0%. The “Percentage damage caused to weed species, post-emergence, IPOHE” value in [6] was 30%. For the same molecule, the “Percentage damage caused to weed species, pre-emergence, ALOMY” value in [7] was 10%. In test [8], the “Percentage damage caused to weed species, pre-emergence, ECHCG” value amounted to 0%. Moreover, in [9], the “Percentage damage caused to weed species, pre-emergence, AMARE” value is recorded as 20%. In addition, the “Percentage damage caused to weed species, pre-emergence, SOLNI” value in the test on Solanum nigrum (SOLNI) [10] was 80%. Also, in the test with Setaria faberi (SETFA) [11], the “Percentage damage caused to weed species, pre-emergence, SETFA” value was 20%. Moreover, in [12], the “Percentage damage caused to weed species, pre-emergence, IPOHE” value was 90%.
